Tests used:
EP2 [1] = biological target: T1, EP2 (Homo sapiens, UniProt P43116); experiment: EP2 flipr; type: cell-based
Source text: (§1) U.S. patent application Ser. No. 11/553,143, filed on Oct. 26, 2006, incorporated by reference herein in its entirety, describes the methods used to obtain the in vitro data in the table below.

EP2 [2] = biological target: T1, EP2; experiment: EP2 cAMP; type: cell-based
Source text: as §1

EP2 [3] = biological target: T1, EP2; experiment: EP2 binding Ki
Source text: as §1

hEP3A = biological target: T2, hEP3A (Homo sapiens, UniProt P43115); experiment: Other receptors hEP3A; type: cell-based
T2 sequence (P43115 1-390): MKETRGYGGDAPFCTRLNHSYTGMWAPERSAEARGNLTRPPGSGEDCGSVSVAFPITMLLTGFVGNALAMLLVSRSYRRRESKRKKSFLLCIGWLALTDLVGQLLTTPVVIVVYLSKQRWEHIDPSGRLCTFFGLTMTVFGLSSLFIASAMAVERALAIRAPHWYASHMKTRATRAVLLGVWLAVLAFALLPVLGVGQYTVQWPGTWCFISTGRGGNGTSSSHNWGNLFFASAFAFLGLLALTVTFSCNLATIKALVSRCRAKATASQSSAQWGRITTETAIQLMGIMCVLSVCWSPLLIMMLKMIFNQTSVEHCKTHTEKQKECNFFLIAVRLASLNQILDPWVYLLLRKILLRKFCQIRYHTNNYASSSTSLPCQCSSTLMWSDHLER
Source text: as §1

EP4 [4] = biological target: T3, EP4 (Homo sapiens, UniProt P35408); experiment: EP4 flipr; type: cell-based
T3 sequence (P35408 whole entry): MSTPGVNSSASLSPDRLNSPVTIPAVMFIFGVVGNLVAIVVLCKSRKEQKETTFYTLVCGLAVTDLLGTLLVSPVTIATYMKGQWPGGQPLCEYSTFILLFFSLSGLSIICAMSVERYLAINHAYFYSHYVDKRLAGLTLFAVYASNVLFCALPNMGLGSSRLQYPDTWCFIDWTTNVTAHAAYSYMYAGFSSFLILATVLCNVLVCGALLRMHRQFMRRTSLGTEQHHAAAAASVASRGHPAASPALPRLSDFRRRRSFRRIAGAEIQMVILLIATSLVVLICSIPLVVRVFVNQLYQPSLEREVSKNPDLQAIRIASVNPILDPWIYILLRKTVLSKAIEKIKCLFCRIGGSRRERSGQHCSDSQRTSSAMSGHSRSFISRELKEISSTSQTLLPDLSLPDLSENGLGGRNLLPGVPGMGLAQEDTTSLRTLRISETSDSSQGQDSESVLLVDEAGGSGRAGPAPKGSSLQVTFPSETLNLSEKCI
Source text: as §1

EP4 [5] = biological target: T3, EP4; experiment: EP4 binding Ki
Source text: as §1

T1 sequence (P43116 whole entry): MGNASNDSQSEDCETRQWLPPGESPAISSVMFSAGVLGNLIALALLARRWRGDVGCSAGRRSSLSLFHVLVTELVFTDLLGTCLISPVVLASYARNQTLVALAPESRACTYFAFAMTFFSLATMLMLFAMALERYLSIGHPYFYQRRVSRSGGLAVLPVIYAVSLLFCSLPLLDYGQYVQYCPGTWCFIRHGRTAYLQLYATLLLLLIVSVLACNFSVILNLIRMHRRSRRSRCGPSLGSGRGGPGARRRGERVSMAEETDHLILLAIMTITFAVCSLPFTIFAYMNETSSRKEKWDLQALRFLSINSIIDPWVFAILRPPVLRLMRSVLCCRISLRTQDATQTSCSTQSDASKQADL

SMILES	EC50 (EP2 [1]) [nM]	EC50 (EP2 [2]) [nM]	Ki (EP2 [3]) [nM]	EC50 (hEP3A) [nM]	EC50 (EP4 [4]) [µM]	Ki (EP4 [5]) [nM]
O=C(O)c1ccc(CCC[C@H]2C(C(F)(F)F)C[C@@H](O)[C@@H]2C#Cc2ccccc2)s1 (single isomer, unassigned) [Example 23]	79	3	30	7100		
O=C(O)c1ccc(CCC[C@@H]2[C@@H](C#Cc3ccccc3)[C@H](O)C[C@H]2C(F)(F)F)s1 (single isomer, unassigned) [Example 24]	107	4	41			
O=C(O)c1ccc(CCC[C@@H]2[C@@H](/C=C/c3cncc(Cl)c3)[C@H](O)C[C@H]2Cl)s1 [Example 3, 5-(3-((1R,2R,3R,5R)-5-chloro-2-((E)-2-(5-chloropyridin-3-yl)vinyl)-3-hydroxycyclopentyl)propyl)-thiophene-2-carboxylic acid]	101	1.3	10		15.9	3500
Cc1cc(C)cc(/C=C/[C@@H]2[C@@H](CCCc3ccc(C(=O)O)s3)[C@H](Cl)C[C@H]2O)c1 [Example 8, 5-(3-((1R,2R,3R,5R)-5-chloro-2-(3,5-dimethylstyryl)-3-hydroxycyclopentyl)propyl)thiophene-2-carboxylic acid]	328	1.4	8		10	86
C/C=C/c1cc(Cl)cc(/C=C/[C@@H]2[C@@H](CCCc3ccc(C(=O)O)s3)[C@H](Cl)C[C@H]2O)c1 [Example 10, 5-(3-((1R,2R,3R,5R)-5-chloro-2-((E)-3-chloro-5-((E)-prop-1-enyl)styryl)-3-hydroxycyclopentyl)propyl)thiophene-2-carboxylic acid]	1640	0.1	1.4		> 10	90
C/C=C/c1cc(Cl)cc(/C=C\[C@@H]2[C@@H](CCCc3ccc(C(=O)O)s3)[C@H](Cl)C[C@H]2O)c1 [Example 11, 5-(3-((1R,2R,3R,5R)-5-chloro-2-((Z)-3-chloro-5-((E)-prop-1-enyl)styryl)-3-hydroxycyclopentyl)propyl)thiophene-2-carboxylic acid]	2180	12	24		6.46	239
CCCc1cc(/C=C/[C@@H]2[C@@H](CCCc3ccc(C(=O)O)s3)[C@H](Cl)C[C@H]2O)ccn1 [Example 13, 5-(3-((1R,2R,3R,5R)-5-chloro-3-hydroxy-2-((E)-2-(2-propylpyridin-4-yl)vinyl)cyclopentyl)propyl)thiophene-2-113 carboxylic acid]	> 10000	0.4	2		> 10	193

Compounds with a lower EC50 (EP2 [1]), results first:

EC50 (EP2 [1]) [nM]	EC50 (EP2 [2]) [nM]	Ki (EP2 [3]) [nM]	EC50 (hEP3A) [nM]	EC50 (EP4 [4]) [µM]	Ki (EP4 [5]) [nM]	SMILES
44	0.09	2.3		15.9	162	O=C(O)c1ccc(CCC[C@@H]2[C@@H](/C=C/c3cc(Cl)nc(Cl)c3)[C@H](O)C[C@H]2Cl)s1 [Example 4, 5-(3-((1R,2R,3R,5R)-5-chloro-2-((E)-2-(2,6-dichloropyridin-4-yl)vinyl)-3-hydroxycyclopentyl)propyl)-thiophene-2-carboxylic acid]
72	0.03	0.7	5780	17.3	288	C=CCCc1cccc(/C=C/[C@@H]2[C@@H](CCCc3ccc(C(=O)O)s3)[C@H](Cl)C[C@H]2O)c1 [Example 9, 5-(3-((1R,2R,3R,5R)-2-(3-(but-3-enyl)styryl)-5-chloro-3-hydroxycyclopentyl)propyl)thiophene-2-carboxylic acid]
7	0.04	1.2	3880	3.46	616	O=C(O)c1csc(SCC[C@@H]2[C@@H](/C=C/c3cc(Cl)cc(Cl)c3)[C@H](O)C[C@H]2Cl)n1 [Example 14, 2-(2-((1R,2R,3R,5R)-5-chloro-2-(3,5-dichlorostyryl)-3-hydroxycyclopentyl)ethylthio)thiazole-4-carboxylic acid]
9	0.05	5	11000	33.8	700	O=C(O)c1ccc(CCC[C@H]2C(=O)C[C@@H](O)[C@@H]2C#Cc2ccccc2)s1 [Example 17, 5-(3-((1R,2S,3R)-3-hydroxy-5-oxo-2-(phenylethynyl)cyclopentyl)propyl)thiophene-2-carboxylic acid]

— patent US9765065B2, “Therapeutic substituted cyclopentanes” (ALLERGAN, INC., priority 2007, dated 2017)
